The source of these data is US7449545B2, “Antimicrobial bolisin peptides” (IPF Pharmaceuticals GmbH, priority 2001, dated 2008).

Format in all cases: cell-based
Assay [1] concerns Streptococcus pneumoniae DSM 11865 (penicillin-resistant). To be noted: DSM 11865, 2 h. The source says:
(§1) The bolisin analogues of the present invention were examined for their suitability as antibiotic therapeutical agents by means of various biological tests. Thus, the chemically synthesized peptides were examined for their antimicrobial effectiveness against three Gram-positive and three Gram-negative bacterial strains as well as against a yeast.
(§2) The following microorganisms were used: • Gram-positive: Staphylococcus aureus ATCC 25923 • Enterococcus faecalis ATCC 51299 (vancomycin-resistant) • Streptococcus pneumoniae DSM 11865 (penicillin-resistant) • Gram-negative: Escherichia coli ATCC 25922 • Pseudomonas aeruginosa ATCC 9027 • Klebsiella pneumoniae ATCC 10031 • Yeast: Candida albicans ATCC 10231
(§3) The antibiotic activity of bolisin analogues was examined by determining the minimum inhibition concentration. […] This method allows to obtain a quantitative result about the antimicrobial potency of the peptides. These examinations were performed by analogy with the recommendations (M7-A3) edited by the NCCLS (National Committee for Clinical Laboratory Standards) by applying a dilution test in a liquid medium using chemically synthesized peptides (peptide sequences according to claims 1 to 3). Mueller Hinton Broth was used as the test medium according to the NCCLS recommendations unless indicated otherwise. […] The minimum inhibition concentrations are stated in [μg/ml].
(§4) A complete growth inhibition could not be achieved in this case. For determining the minimum inhibition concentration, the following microorganisms were used: • 1. Staphylococcus aureus ATCC 25923 • 2. Enterococcus faecalis ATCC 51299 (vancomycin-resistant) • 3. Streptococcus pneumoniae DSM 11865 (penicillin-resistant) • 4. Escherichia coli ATCC 25922 • 5. Pseudomonas aeruginosa ATCC 9027 • 6. Klebsiella pneumoniae ATCC 10031 • 7. Candida albicans ATCC 10231

In assay [2] the test system is Klebsiella pneumoniae ATCC 10031. To be noted: ATCC 10031, 2 h.
Description: as §1, §2, §3, §4

Assay [3] concerns Enterococcus faecalis ATCC 51299 (vancomycin-resistant). To be noted: ATCC 51299, 2 h.
Description: as §1, §2, §3, §4

Assay [4] relates to Staphylococcus aureus ATCC 25923. To be noted: ATCC 25923, 2 h.
Description: as §1, §2, §3, §4

The test system of assay [5] is Escherichia coli ATCC 25922. To be noted: ATCC 25922, 2 h.
Description: as §1, §2, §3, §4

Assay [6] relates to Pseudomonas aeruginosa ATCC 9027. To be noted: complete growth inhibition not achieved.
Description: as §1, §2
The antibiotic activity of bolisin analogues was examined by determining the minimum inhibition concentration. The minimum inhibition concentration of an analogue designates the lowest peptide concentration which is required to inhibit the growth of microorganisms completely after an incubation time of 18±2 h. This method allows to obtain a quantitative result about the antimicrobial potency of the peptides. These examinations were performed by analogy with the recommendations (M7-A3) edited by the NCCLS (National Committee for Clinical Laboratory Standards) by applying a dilution test in a liquid medium using chemically synthesized peptides (peptide sequences according to claims 1 to 3). Mueller Hinton Broth was used as the test medium according to the NCCLS recommendations unless indicated otherwise. […] The minimum inhibition concentrations are stated in [μg/ml].
as §4

Where [7] appears, read: half-concentrated Mueller Hinton Broth.

Like-named read-outs stand apart in the source and are kept apart here. Ends that are not written are not given here.

As for “KLAKRRKWAWRIKYVIY [BOL-103, KLAKRRKWAWRIKYVIY]”, the minimum inhibition concentration in assay [1] is 37.5 µg/mL; in assay [2], 18.75 µg/mL; in assay [3], 37.5 µg/mL; in assay [4] it was 18.75 µg/mL; in assay [5], 18.75 µg/mL. For the same substance, the “peptide concentration giving 75% inhibition of growth (value in parentheses)” value in assay [6] (Mueller Hinton Broth) is “(9.4) μg/ml”.
Take “YIRYKIRSARKRRKALK-OH [BOL-14, YIRYKIRSARKRRKALK]”: the minimum inhibition concentration in assay [1] was more than 300 µg/mL; in assay [2] it was 75 µg/mL; in assay [3] it was more than 300 µg/mL; in assay [4], 50 µg/mL; in assay [5] it was 37.5 µg/mL. The “peptide concentration giving 75% inhibition of growth (value in parentheses)” value in assay [6] (setting [7]) is reported as “(150) μg/ml”.
As to “YIRYKRRSADKRRKALK-OH [BOL-16, YIRYKRRSADKRRKALK]”, the minimum inhibition concentration in assay [1] was more than 300 µg/mL; in assay [2], 150 µg/mL; in assay [3], more than 300 µg/mL; in assay [4] it was 100 µg/mL; in assay [5], 75 µg/mL. The “peptide concentration giving 75% inhibition of growth (value in parentheses)” value in assay [6] (setting [7]) is reported as “(300) μg/ml”.
With “YIVWKIRSADKRSKALK-OH [BOL-25, YIVWKIRSADKRSKALK]”, the minimum inhibition concentration in assay [1] was more than 300 µg/mL; in assay [2] it was 200 µg/mL; in assay [3] it was more than 300 µg/mL; in assay [4], 150 µg/mL; in assay [5] it was 150 µg/mL. The “peptide concentration giving 75% inhibition of growth (value in parentheses)” value in assay [6] (setting [7]) is recorded as “(150) μg/ml”.
Take “YIVYKIRFAFKRRKAL [BOL-92, YIVYKIRFAFKRRKAL]”: the minimum inhibition concentration in assay [1] turned out to be 25 µg/mL; in assay [2], 12.5 µg/mL; in assay [3] it was 18.75 µg/mL; in assay [4], 18.75 µg/mL; in assay [5] it was 18.75 µg/mL. In addition, the “peptide concentration giving 75% inhibition of growth (value in parentheses)” value in assay [6] (Mueller Hinton Broth) is recorded as “(37.5) μg/ml”.
As for “YIVYKIRFAFKRSKAL [BOL-91, YIVYKIRFAFKRSKAL]”, the minimum inhibition concentration in assay [1] was 37.5 µg/mL; in assay [2] it was 18.75 µg/mL; in assay [3] it was 37.5 µg/mL; in assay [4] it was 25 µg/mL; in assay [5], 25 µg/mL. Besides, the “peptide concentration giving 75% inhibition of growth (value in parentheses)” value in assay [6] (Mueller Hinton Broth) is “(150) μg/ml”.
Regarding “YIVYKIRSADKRRKALK-OH [BOL-7, YIVYKIRSADKRRKALK]”, the minimum inhibition concentration in assay [1] is more than 300 µg/mL; in assay [2], 300 µg/mL; in assay [3], more than 300 µg/mL; in assay [4], 75 µg/mL; in assay [5], 150 µg/mL. In assay [6] (setting [7]), the “peptide concentration giving 75% inhibition of growth (value in parentheses)” value is given as “(75) μg/ml”.
Take “YIVYKIRSADKRWKALK-OH [BOL-30, YIVYKIRSADKRWKALK]”: the minimum inhibition concentration in assay [1] is more than 300 µg/mL; in assay [2] it was 300 µg/mL; in assay [3], more than 300 µg/mL; in assay [4], 100 µg/mL; in assay [5], 150 µg/mL. For the same substance, the “peptide concentration giving 75% inhibition of growth (value in parentheses)” value in assay [6] (setting [7]) is listed as “(300) μg/ml”.
Turning to “YIVYKIRSAPKRSKALK-OH [BOL-21, YIVYKIRSAPKRSKALK]”, the minimum inhibition concentration in assay [1] was more than 300 µg/mL; in assay [2] it was 200 µg/mL; in assay [3], more than 300 µg/mL; in assay [4] it was 75 µg/mL; in assay [5] it was 150 µg/mL. For the same substance, the “peptide concentration giving 75% inhibition of growth (value in parentheses)” value in assay [6] (setting [7]) was “(150) μg/ml”.
As for “YIVYKIRSARKRRKALK-OH [BOL-13, YIVYKIRSARKRRKALK]”, the minimum inhibition concentration in assay [1] stood at 150 µg/mL; in assay [2], 18.75 µg/mL; in assay [3], 75 µg/mL; in assay [4], 18.75 µg/mL; in assay [5], 18.75 µg/mL. The “peptide concentration giving 75% inhibition of growth (value in parentheses)” value in assay [6] (setting [7]) is recorded as “(9.375) μg/ml”.
In the case of “YIVYKIRSARKRSKALK-OH [BOL-6, YIVYKIRSARKRSKALK]”, the minimum inhibition concentration in assay [1] stood at 150 µg/mL; in assay [2] it was 37.5 µg/mL; in assay [3] it was 200 µg/mL; in assay [4], 37.5 µg/mL; in assay [5] it was 37.5 µg/mL. Also, in assay [6] (setting [7]), the “peptide concentration giving 75% inhibition of growth (value in parentheses)” value is given as “(9.375) μg/ml”.
In the case of “YIVYKIRSAWKRSKALK-OH [BOL-29, YIVYKIRSAWKRSKALK]”, the minimum inhibition concentration in assay [1] came to 150 µg/mL; in assay [2], 50 µg/mL; in assay [3] it was 75 µg/mL; in assay [4], 9.375 µg/mL; in assay [5], 9.375 µg/mL. Besides, the “peptide concentration giving 75% inhibition of growth (value in parentheses)” value in assay [6] (setting [7]) is “(18.75) μg/ml”.
Regarding “YIVYKIRWADKRSKALK-OH [BOL-27, YIVYKIRWADKRSKALK]”, the minimum inhibition concentration in assay [1] was found to be 300 µg/mL; in assay [2], 150 µg/mL; in assay [3] it was 300 µg/mL; in assay [4] it was 75 µg/mL; in assay [5], 75 µg/mL. Besides, the “peptide concentration giving 75% inhibition of growth (value in parentheses)” value in assay [6] (setting [7]) is on record as “(150) μg/ml”.
As to “YIVYKIRWAWKRSKAL [BOL-93, YIVYKIRWAWKRSKAL]”, the minimum inhibition concentration in assay [1] stood at 25 µg/mL; in assay [2] it was 25 µg/mL; in assay [3] it was 37.5 µg/mL; in assay [4], 25 µg/mL; in assay [5], 25 µg/mL. For the same substance, the “peptide concentration giving 75% inhibition of growth (value in parentheses)” value in assay [6] (Mueller Hinton Broth) is “(37.5) μg/ml”.
Turning to “YIVYKIRWTWKRSKAL [BOL-97, YIVYKIRWTWKRSKAL]”, the minimum inhibition concentration turned out to be 18.75 µg/mL in assay [1]; 18.75 µg/mL in assay [2]; 18.75 µg/mL in assay [3]; 12.5 µg/mL in assay [4]; 18.75 µg/mL in assay [5]. For the same substance, the “peptide concentration giving 75% inhibition of growth (value in parentheses)” value in assay [6] (Mueller Hinton Broth) is recorded as “(37.5) μg/ml”.
Regarding “YIVYKRRSADKRRKALK-OH [BOL-12, YIVYKRRSADKRRKALK]”, the minimum inhibition concentration is more than 300 µg/mL in assay [1]; 200 µg/mL in assay [2]; more than 300 µg/mL in assay [3]; 18.75 µg/mL in assay [4]; 18.75 µg/mL in assay [5]. Also, the “peptide concentration giving 75% inhibition of growth (value in parentheses)” value in assay [6] (setting [7]) is “(300) μg/ml”.
As to “YIVYKRRSARKRRKALK-OH [BOL-15, YIVYKRRSARKRRKALK]”, the minimum inhibition concentration in assay [1] was more than 300 µg/mL; in assay [2], 75 µg/mL; in assay [3] it was more than 300 µg/mL; in assay [4], 18.75 µg/mL; in assay [5], 18.75 µg/mL. Also, in assay [6] (setting [7]), the “peptide concentration giving 75% inhibition of growth (value in parentheses)” value is reported as “(150) μg/ml”.
Turning to “YIVYKRRSARKRSKALK-OH [BOL-11, YIVYKRRSARKRSKALK]”, the minimum inhibition concentration is more than 300 µg/mL in assay [1]; 150 µg/mL in assay [2]; more than 300 µg/mL in assay [3]; 37.5 µg/mL in assay [4]; 37.5 µg/mL in assay [5]. The “peptide concentration giving 75% inhibition of growth (value in parentheses)” value in assay [6] (setting [7]) is reported as “(150) μg/ml”.
